According to publication PMC8398451, “Molecular Engineering of Curcumin, an Active Constituent of Curcuma longa L. (Turmeric) of the Family Zingiberaceae with Improved Antiproliferative Activity” (Plants, 2021):
Read-outs that look alike come from different tables or passages of the source.

Columns and labels:
[1] = test system: CCRF-CEM; assay: NCI antiproliferative SRB assay, Leukemia panel; assay type: cell-based, Human
[2] = test system: HL-60(TB); assay: cells; assay type: cell-based
[3] = test system: MOLT-4; assay: NCI antiproliferative SRB assay, Leukemia panel; assay type: cell-based, Human
[4] = test system: A549/ATCC; assay: NCI antiproliferative SRB assay, Non-Small Cell Lung Cancer panel; assay type: cell-based, Human
[5] = test system: NCI-H460; assay: as above; assay type: cell-based, Human
[6] = test system: COLO 205; assay: NCI antiproliferative SRB assay, Colon Cancer panel; assay type: cell-based, Human
[7] = test system: HCC-2998; assay: as above; assay type: cell-based, Human
[8] = test system: HCT-116; assay: as above; assay type: cell-based, Human
[9] = test system: HCT-15; assay: as above; assay type: cell-based, Human
[10] = test system: KM12; assay: as above; assay type: cell-based, Human
[11] = test system: SF-268; assay: NCI antiproliferative SRB assay, CNS Cancer panel; assay type: cell-based, Human
[12] = test system: SNB-19; assay: NCI antiproliferative SRB assay, CNS Cancer panel; assay type: cell-based, Human
[13] = test system: U251; assay: NCI antiproliferative SRB assay, CNS Cancer panel; assay type: cell-based; details: U251
[14] = test system: LOX IMVI; assay: NCI antiproliferative SRB assay, Melanoma panel; assay type: cell-based, Human
[15] = test system: SK-MEL-2; assay: NCI antiproliferative SRB assay, Melanoma panel; assay type: cell-based, Human
[16] = test system: SK-MEL-28; assay: NCI antiproliferative SRB assay, Melanoma panel; assay type: cell-based, Human
[17] = test system: SK-MEL-5; assay: NCI antiproliferative SRB assay, Melanoma panel; assay type: cell-based, Human
[18] = test system: UACC-257; assay: NCI antiproliferative SRB assay, Melanoma panel; assay type: cell-based, Human
[19] = test system: UACC-62; assay: NCI antiproliferative SRB assay, Melanoma panel; assay type: cell-based, Human
[20] = test system: OVCAR-3; assay: NCI antiproliferative SRB assay, Ovarian Cancer panel; assay type: cell-based, Human
[21] = test system: SN 12C; assay: NCI antiproliferative SRB assay, Renal Cancer panel; assay type: cell-based, Human
[22] = test system: TK-10; assay: as above; assay type: cell-based, Human
[23] = test system: UO-31; assay: as above; assay type: cell-based, Human
[24] = test system: MCF7; assay: NCI antiproliferative SRB assay, Breast Cancer panel; assay type: cell-based, Human
[25] = test system: MDA-MB-231; assay: as above; assay type: cell-based
[26] = test system: HS 578T; assay: as above; assay type: cell-based, Human
[27] = test system: BT-549; assay: as above; assay type: cell-based, Human
[28] = test system: Prostate Cancer cell line panel; assay: NCI antiproliferative assay, panel summary; assay type: cell-based, Human
[29] = test system: Breast Cancer cell line panel; assay: NCI antiproliferative assay, panel summary; assay type: cell-based, Human
[30] = test system: 60 NCI cancer cell lines; assay: NCI antiproliferative assay, summary over all lines; assay type: cell-based; details: for GI50: Homo sapiens, 5-dose assay
[31] = Homo sapiens, 5-dose 0.01-100 µM
[32] = Homo sapiens, 5-dose 0.01-100 µM, read-out: LC50 (the source's name)
[33] = Homo sapiens, 5-dose assay, read-out: Sub Panel MID b (mean GI50 of panel)
[34] = mean over cell lines, one dose 10 µM

Compound: COc1cc(/C=C/c2cc(/C=C/c3ccc(O)c(OC)c3)n(C(=O)Nc3ccc(C(F)(F)F)cc3)n2)ccc1O [3c]
- GI50 [1, 31]: 2.63 µM
- CC50 [1, 32]: > 100 µM
- %GI ([1]; one dose 10 µM): 96.58%
- GP (growth percent) ([1]; one dose 10 µM): 3.42
- TGI ([2]; 5-dose 0.01-100 µM): 6.45 µM
- GI50 [2, 31]: 1.98 µM
- CC50 [2, 32]: > 100 µM
- %GI ([2]; one dose 10 µM): 84.83%
- GP (growth percent) ([2]; one dose 10 µM): 15.17
- TGI ([3]; 5-dose 0.01-100 µM): 20.0 µM
- GI50 [3, 31]: 2.73 µM
- CC50 [3, 32]: > 100 µM
- %GI ([3]; one dose 10 µM): 88.91%
- GP (growth percent) ([3]; one dose 10 µM): 11.09
- TGI ([4]; 5-dose 0.01-100 µM): >100 µM
- GI50 [4, 31]: 4.11 µM
- LC50 (50% lethal concentration) [4, 31]: > 100 µM
- %GI ([4]; one dose 10 µM): 57.05%
- GP (growth percent) ([4]; one dose 10 µM): 42.95
- TGI ([5]; 5-dose 0.01-100 µM): 9.95 µM
- GI50 [5, 31]: 3.22 µM
- CC50 [5, 32]: 50.7 µM
- %GI ([5]; one dose 10 µM): 81.71%
- GP (growth percent) ([5]; one dose 10 µM): 18.29
- TGI ([6]; 5-dose 0.01-100 µM): 4.50 µM
- GI50 [6, 31]: 2.05 µM
- CC50 [6, 32]: 9.91 µM
- %GI ([6]; one dose 10 µM): 48.73%
- GP (growth percent) ([6]; one dose 10 µM): 51.27
- TGI ([7]; 5-dose 0.01-100 µM): 3.82 µM
- GI50 [7, 31]: 2.04 µM
- CC50 [7, 32]: 71.2 µM
- %GI ([7]; one dose 10 µM): −2.63%
- GP (growth percent) ([7]; one dose 10 µM): 102.63
- TGI ([8]; 5-dose 0.01-100 µM): 2.94 µM
- GI50 [8, 31]: 1.51 µM
- CC50 [8, 32]: 5.7 µM
- %GI ([8]; one dose 10 µM): 153.67%
- GP (growth percent) ([8]; one dose 10 µM): −53.67
- TGI ([9]; 5-dose 0.01-100 µM): 9.63 µM
- GI50 [9, 31]: 2.69 µM
- CC50 [9, 32]: > 100 µM
- %GI ([9]; one dose 10 µM): 74.49%
- GP (growth percent) ([9]; one dose 10 µM): 25.51
- TGI ([10]; 5-dose 0.01-100 µM): 5.59 µM
- GI50 [10, 31]: 2.33 µM
- CC50 [10, 32]: 54 µM
- %GI ([10]; one dose 10 µM): 58.62%
- GP (growth percent) ([10]; one dose 10 µM): 41.38
- TGI ([11]; 5-dose 0.01-100 µM): 15.4 µM
- GI50 [11, 31]: 2.8 µM
- CC50 [11, 32]: > 100 µM
- %GI ([11]; one dose 10 µM): 62.88%
- GP (growth percent) ([11]; one dose 10 µM): 37.12
- TGI ([12]; 5-dose 0.01-100 µM): 11.2 µM
- GI50 [12, 31]: 3.16 µM
- CC50 [12, 32]: 36.9 µM
- %GI ([12]; one dose 10 µM): 51.32%
- GP (growth percent) ([12]; one dose 10 µM): 48.68
- GI50 ([13]; Homo sapiens, U-251, 5-dose 0.01-100 µM, read-out: GI50): 2.49 µM
- CC50 ([13]; Homo sapiens, U-251, 5-dose 0.01-100 µM, read-out: LC50 (the source's name)): > 100 µM
- TGI ([13]; 5-dose 0.01-100 µM): 6.86 µM
- %GI ([13]; one dose 10 µM): 90.29%
- GP (growth percent) ([13]; one dose 10 µM): 9.71
- TGI ([14]; 5-dose 0.01-100 µM): 3.71 µM
- GI50 [14, 31]: 1.77 µM
- %GI ([14]; one dose 10 µM): 90.89%
- GP (growth percent) ([14]; one dose 10 µM): 9.11
- TGI ([15]; 5-dose 0.01-100 µM): 17.3 µM
- GI50 [15, 31]: 3.15 µM
- CC50 [15, 32]: > 100 µM
- %GI ([15]; one dose 10 µM): 15.53%
- GP (growth percent) ([15]; one dose 10 µM): 84.47
- TGI ([16]; 5-dose 0.01-100 µM): 5.90 µM
- GI50 [16, 31]: 2.19 µM
- CC50 [16, 32]: 23.9 µM
- %GI ([16]; one dose 10 µM): 42.01%
- GP (growth percent) ([16]; one dose 10 µM): 57.99
- TGI ([17]; 5-dose 0.01-100 µM): 6.89 µM
- GI50 [17, 31]: 2.27 µM
- CC50 [17, 32]: 28 µM
- %GI ([17]; one dose 10 µM): 64.60%
- GP (growth percent) ([17]; one dose 10 µM): 35.40
- TGI ([18]; 5-dose 0.01-100 µM): 14.0 µM
- GI50 [18, 31]: 4.01 µM
- CC50 [18, 32]: 42 µM
- %GI ([18]; one dose 10 µM): 74.99%
- GP (growth percent) ([18]; one dose 10 µM): 25.01
- TGI ([19]; 5-dose 0.01-100 µM): 4.76 µM
- GI50 [19, 31]: 2.02 µM
- CC50 [19, 32]: 16.7 µM
- %GI ([19]; one dose 10 µM): 68.90%
- GP (growth percent) ([19]; one dose 10 µM): 31.10
- TGI ([20]; 5-dose 0.01-100 µM): 26.7 µM
- GI50 [20, 31]: 3.41 µM
- CC50 [20, 32]: > 100 µM
- %GI ([20]; one dose 10 µM): 86.24%
- GP (growth percent) ([20]; one dose 10 µM): 13.76
- TGI ([21]; 5-dose 0.01-100 µM): 9.90 µM
- GI50 ([21]; Homo sapiens, SN12C, 5-dose 0.01-100 µM): 2.73 µM
- CC50 ([21]; Homo sapiens, SN12C, 5-dose 0.01-100 µM, read-out: LC50 (the source's name)): > 100 µM
- %GI ([21]; one dose 10 µM): 63.08%
- GP (growth percent) ([21]; one dose 10 µM): 36.92
- TGI ([22]; 5-dose 0.01-100 µM): 14.8 µM
- GI50 [22, 31]: 4.13 µM
- CC50 [22, 32]: 59.4 µM
- %GI ([22]; one dose 10 µM): 22.31%
- GP (growth percent) ([22]; one dose 10 µM): 77.69
- GI50 [23, 31]: 1.94 µM
- LC50 (50% lethal concentration) [23, 31]: > 100 µM
- %GI ([23]; one dose 10 µM): 57.15%
- GP (growth percent) ([23]; one dose 10 µM): 42.85
- TGI ([24]; 5-dose 0.01-100 µM): 10.7 µM
- GI50 [24, 31]: 1.97 µM
- CC50 [24, 32]: 72 µM
- %GI ([24]; one dose 10 µM): 77.08%
- GP (growth percent) ([24]; one dose 10 µM): 22.92
- TGI ([25]; 5-dose 0.01-100 µM): 9.62 µM
- GI50 ([25]; Homo sapiens): 3.06 µM
- CC50 [25, 32]: > 100 µM
- %GI ([25]; one dose 10 µM): 45.21%
- GP (growth percent) ([25]; one dose 10 µM): 54.79
- TGI ([26]; 5-dose 0.01-100 µM): 60.6 µM
- GI50 [26, 31]: 5.1 µM
- CC50 [26, 32]: > 100 µM
- %GI ([26]; one dose 10 µM): 48.11%
- GP (growth percent) ([26]; one dose 10 µM): 51.89
- TGI ([27]; 5-dose 0.01-100 µM): 3.67 µM
- GI50 [27, 31]: 1.96 µM
- CC50 [27, 32]: 6.86 µM
- %GI ([27]; one dose 10 µM): 81.03%
- GP (growth percent) ([27]; one dose 10 µM): 18.97
- Mean % GI ([28]; 10 µM): 57.21%
- Selectivity Ratio (MID a:MID b) ([28]; 5-dose assay): 0.82
- GI50 [28, 33]: 3.44 µM
- Mean % GI ([29]; 10 µM): 60.04%
- Selectivity Ratio (MID a:MID b) ([29]; 5-dose assay): 0.99
- GI50 [29, 33]: 2.86 µM
- GI50 ([30]; read-out: GI50 values, range over cell lines): 1.48 to 7.29 µM
- GI50 ([30]; read-out: MID a (mean GI50 of 60 NCI cancer cell lines)): 2.84 µM
- Mean % GI [30, 34]: 59.26%
- Mean GP [30, 34]: 40.74
